ChEMBL document CHEMBL3507680, “University of Dundee, Gates Library screen for HepG2 cell viability”

assay: Human HepG2 cell viability assay in 384 well format; assay type: toxicity, cell-based; set-up: dose 125 nL, time 70.5 hour; cytotoxicity at 70.5 h: concentration not given beside the values; settings: HepG2 cells, read-out: Inhibition

SMILES	cytotoxicity at 70.5 h [%]
CN(C)Cc1cn(-c2ccccc2C(=O)NCCC2CCCN2C)cn1 (centres undefined)	24.5
Cc1cccc(CN2CCn3cc(Cn4cccn4)nc3C2)n1	-12.9
Cc1nc(-c2ccc(F)cc2)nc2c1CCN(C(=O)CN(C)C)CC2	-1.65
COCC(=O)N1CCC(c2noc3nc(C)cc(C(F)(F)F)c23)CC1	24.6
COC(=O)N1CCc2ccccc2C1C(=O)NCC(F)(F)F (centres undefined)	-5.95
CN1CC(=O)N(c2ccccc2)Cc2c(NC3CC3)ncnc21	0.416
Nc1cc(-c2c[nH]nc2C2CCCCN2C(=O)C2CCCC2)ccn1 (centres undefined)	-7.49
CC(C1CCN(Cc2ccc(N(C)C)nc2)CC1)N1CCOCC1 (centres undefined)	8.61
Cc1nc(-c2nnc[nH]2)sc1C(=O)N1CCCC1Cn1cccn1 (centres undefined)	-3.3
COCC1CC2(CCN(Cc3nccs3)CC2)CN1Cc1ccccn1 (centres undefined)	9.76
Cc1ncc(CNC(=O)N(CCCO)C2CCc3ccccc32)s1 (centres undefined)	-5.3
NCC1Cc2cc(-c3nccc(N4CCC(O)CC4)n3)cc(Cl)c2O1 (centres undefined)	5.41
Cc1nn(C)c(C)c1C1CCCN1C(=O)c1cc(C(N)=O)cs1 (centres undefined)	-6.04
CC(C)CC(NS(C)(=O)=O)C(=O)N(C)Cc1nnc2n1CCC2 (centres undefined)	-8.38
Cc1nc[nH]c1CN1C[C@@H]2CC[C@H](C1)N(C(=O)CCNS(C)(=O)=O)C2	-1.67
CCCc1nc(C(=O)N2CCN(C(=O)c3ccc(OC)cc3)CC2)cs1	-5.88
CCN(Cc1nc(COC)no1)Cc1cccnc1NC(=O)C(C)(C)C	-9.55
CCNc1cc2c(nn1)CCN(C(=O)c1cc3ccccc3o1)C2	-6.18
Cc1ccc(Cl)cc1N1CCC(CNC(=O)CCn2ccnc2)C1 (centres undefined)	-10.1
c1cnnc(N2CCCC2CNCc2cnc(N3CCCC3)nc2)c1 (centres undefined)	-7.83
Fc1cccc(Cl)c1CNCCOc1ccccn1	-20.9
Cc1cc(NCc2ccccc2)nc2[nH]nc(N)c12	-12.7
CCN(CC)C(=O)CNC(=O)N1CCC(c2ccc(OC)cc2)C1 (centres undefined)	12.9

SMILES	cytotoxicity at 70.5 h [%]
Cn1cc(CN2CCCC(CCc3ccccc3C(F)(F)F)C2)cn1 (centres undefined)	-1.24
O=C(c1ncc[nH]1)N1CCC(n2cc(-c3cccc(Cl)c3)nn2)CC1	8.61
O=C(c1ccc[nH]1)N1CCc2onc(COc3cccnc3)c2C1	-4.03
COc1ccccc1N1CCC(CNCc2cccc(O)c2)C1 (centres undefined)	8.44
CC(C)Nc1nc2c(c(NC3CC3)n1)CCN(C1CCOCC1)CC2	-3.76
Cc1cccc(CN2C[C@@H]3COC[C@]3(COc3cccnc3)C2)n1	-120
O=S(=O)(c1cccnc1)N1CCN(Cc2nc(-c3cccs3)cs2)CC1	-14.7
Fc1ccc(-c2noc(C3COCCO3)n2)cc1F (centres undefined)	-1.66
Cn1cc(CN2CCCC23CCN(C(=O)c2ccncc2)CC3)cn1	20.3
COc1cccc(CCC2CCCN(C(=O)c3ccccn3)C2)c1 (centres undefined)	17.8
c1ccc(NCc2cn3c(n2)CN(Cc2cccnc2)CC3)nc1	-10
Cc1cc(C2CCCN(CC(=O)N3CCCc4ccccc43)C2)n[nH]1 (centres undefined)	-9.66
CCOc1ccc(Cl)c(C(=O)NC(C(N)=O)c2ccccc2)n1 (centres undefined)	14.2
CC1CCCN(Cc2c(C3CCOCC3)[nH]c3ncccc23)C1 (centres undefined)	26.7
CCCS(=O)(=O)NC1CCN(c2cccc(F)c2C#N)CC1	-19.1
Cc1noc(CNc2ccc(C(=O)N3CCCC(C)C3)cc2C)n1 (centres undefined)	-6.32
CC(C)C(Sc1nncn1C1CC1)C(=O)NCc1cccnc1 (centres undefined)	-2.46
COc1cc(F)c(S(=O)(=O)Nc2cnc(O)cc2C)cc1OC	-11.9
COc1ccc(Cl)cc1CN(C)CC(=O)/N=c1\cc[nH]n1C(C)C1CC1 (centres undefined)	20.8
CN(C)CCN(C)c1nc(CCc2ccccc2)nc2c1cnn2C	-1.09
Cc1nc(CNC(=O)Nc2cc(F)ccc2OC(F)F)no1	-3.38
NCCn1cc(C(=O)N2CCCCCC2c2ccco2)nn1 (centres undefined)	-8.2
CCNC(=O)N(Cc1cccc(OC)c1)C1CCC(O)CC1 (centres undefined)	2.57

SMILES	cytotoxicity at 70.5 h [%]
Cc1nnc(NC(=O)CN2CCc3c(nc(C(C)C)n3C)C2)s1	-8.19
CCc1nnc2n1CC(CNCc1nnc(C(C)(C)C)o1)CC2 (centres undefined)	-6.78
Cn1cccc1C(=O)N1CCc2ncnc(N3CCCC3)c2CC1	-5.07
O=C1CC(c2ccc3c(c2)OCO3)c2cn[nH]c2N1 (centres undefined)	-11.7
Cc1cccc(S(=O)(=O)NC(=O)c2ccc3c(c2)nnn3C)c1	-5.75
CCN(CC)C(=O)Cn1c(-c2ccc(Cl)cc2)nc(C)c(CCO)c1=O	0.81
CC(C)C(=O)N1CCCC1C(=O)Nc1ccc(F)c(F)c1 (centres undefined)	-14.3
COc1ncccc1C(Cc1ccsc1)NC(=O)Cn1cccnc1=O (centres undefined)	22.1
CC(c1ccon1)N(C)C(=O)C1CCN(CC(N)=O)CC1 (centres undefined)	18
Cc1occc1C(=O)N1CCc2ncnc(-c3cnn(C)c3)c2CC1	-8.07
CN1CC(Nc2nc3c(cnn3C(C)(C)C)c(=O)[nH]2)CCC1=O (centres undefined)	-2.42
O=C(NCCc1nc(-c2ccccn2)no1)c1ccc(C2CCCO2)s1 (centres undefined)	-5.15
Cc1cc(NC(=O)NCCO)nn1-c1ccc(Cl)cc1Cl	0.498
CCc1nc(CN2CCCC(NCc3cccc(C(N)=O)c3)C2)no1 (centres undefined)	-6.52
CCc1nnc2n1CCN(Cc1csc(-c3cnn(C)c3)n1)C2	6.48
O=C(C1NCCc2[nH]cnc21)N1CCC2(C=Cc3ccccc32)CC1 (centres undefined)	-7.07
CN1CCN(c2ccncc2S(=O)(=O)N2CCCCC2)CC1	0.146
Cc1cnn(CC2CCCN2Cc2cn3ccsc3n2)c1 (centres undefined)	-9.34
CC(NCCn1cccn1)c1ccccc1F (centres undefined)	-0.726
CC1CCN(C(=O)C(C)Oc2ccc3c(c2)OCO3)CC1 (centres undefined)	8.31
Cc1nc(C)n(CC(C)C(=O)N2CCC(NS(C)(=O)=O)CC2)n1 (centres undefined)	34.2
Cc1ncsc1C(=O)NCc1ccnc(OCC(F)(F)F)c1	-11.3
Cc1noc(C)c1CN1C[C@@H]2COC[C@H](C(=O)N3CCCO3)[C@@H]2C1	31.1

SMILES	cytotoxicity at 70.5 h [%]
Cc1nc(N2CCN(C(=O)c3cccs3)CC2)cc(-n2cccc2)n1	1.27
NC(=O)C1CCN(C(=O)C2SCCc3sccc32)CC1 (centres undefined)	-10.3
COCc1n[nH]c2c1CN(Cc1cccs1)C2	-6.13
Cc1cc(C)n(CCCN(CCN2CCOCC2)Cc2ccco2)n1	-4.4
c1ccc(Cn2cc(CNCC3CNc4ccnn4C3)cn2)cc1 (centres undefined)	32.4
Cc1nc(NC(=O)c2cccnc2N2CCOCC2)sc1C	-13.9
COc1cc(CNC(=O)NCc2c(C)cc(C)[nH]c2=O)ccc1C	-8.93
CCC(O)CN(CC(=O)Nc1cc(C)no1)c1ccccc1 (centres undefined)	-3.59
COCCNC(=O)c1cc(-c2cc[nH]n2)n2ccccc12	-117
Cc1ccccc1OCCCC(=O)N(C)CCC#N	-5.57
Cc1ccc(NC2CCN(C(=O)C(C)n3cncn3)CC2)nn1 (centres undefined)	-0.916
COc1cccc(N2Cc3nc(=O)[nH]n3C2=O)c1	-16.5
CC(C)OCCCN(Cc1ccncc1)Cc1cc(F)ccc1F	-4.35
CN1CCC(NC(=O)c2cc(C3CCCCC3)nc3ccccc23)CC1	-2.29
Cc1ccc(CC(=O)N2CCCn3nnc(Cn4cccn4)c3C2)cc1	-9.04
CN(C)C(=O)N1CC2(CCOCC2)c2cc(NC(=O)CCO)ccc21	-0.169
Cn1ccnc1CN1CCC2(CC(=O)N(c3ccccn3)C2)C1 (centres undefined)	-10.7
COCCN1CCCCC12CC(=O)N(c1ccccc1OC)C2 (centres undefined)	-2.67
O=C1CC2(CCN(Cc3ccc4cccc(O)c4n3)CC2)CN1	-5.81
CS(=O)(=O)NC(=O)c1ccn(-c2ccccc2Cl)n1	-1.86
O=S(=O)(c1ccccc1)N1CCCC1c1cc[nH]n1 (centres undefined)	-8.7
Cc1cc(NC(=O)CN2CCCC2Cn2nc(C)nc2C)on1 (centres undefined)	-6.45
Cc1cc(S(C)(=O)=O)c(C)c(S(=O)(=O)N2CCCC(C)C2)c1 (centres undefined)	-7.71

SMILES	cytotoxicity at 70.5 h [%]
CC(C)OCCC(=O)NCC(O)c1c(Cl)cccc1Cl (centres undefined)	-3.94
CC(C)(C)n1ncc2c1CCCC2NCc1cccc(C(N)=O)c1 (centres undefined)	3.6
N#Cc1ccc(NCc2cccc(OCC3CCCO3)c2)nc1 (centres undefined)	-8.7
CC1NC(=O)COC12CCN(C(=O)Cc1ccsc1)CC2 (centres undefined)	4.29
O=C1NCC(c2ccc(Cl)cc2)Cc2[nH]c(CCN3CCOCC3)nc21 (centres undefined)	-12.7
COCc1ccccc1CNc1cc(N2CCCC2CO)ncn1 (centres undefined)	-18.2
CC1=C(c2ccc(Cl)cc2)S(=O)(=O)N=C1N1CCc2ccccc21	-2.07
Cc1c(C(=O)N2CCCC2c2cnn(C)c2)nnn1-c1ccccc1 (centres undefined)	-7.15
CC(C)(C)c1nc(C(C)(C)NC(=O)C2CC(=O)N(CC3CC3)C2)no1 (centres undefined)	-1.01
Cc1ccc2nc(C3CCN(CC(C)C)CC3)nc(O)c2c1	-6.3
CN(Cc1c(F)cccc1Cl)C(=O)Nc1cnn(CC(N)=O)c1	6.9
CCCn1cnnc1-c1nc2c([nH]1)CC(c1ccc(Cl)cc1)CNC2=O (centres undefined)	8.16
Cc1cccc(NC(=O)c2ccc(OCc3nnnn3C)cc2)n1	14.4
CC(C)CNC(=O)Nc1cccc(CN2CCOC2=O)c1	-6.71
COc1ccc(C(C(=O)O)N2CCN(C3CCCC3)CC2)cc1C (centres undefined)	-1.67
O=C(c1ccccn1)N1CCC2(CC1)C(=O)Nc1ccccc12	-9.49
CCOc1ccc(-c2c(C#N)c(N)nc3c2COCC3)cn1	-15
Cc1ccc(C(=O)NCCNC(=O)N(C)C(C)c2ccccn2)cc1 (centres undefined)	-2.96
Cc1cccc(NC(=O)C2CCCN2C(=O)c2ccco2)c1C (centres undefined)	11.4
COCC(=O)N(CCC(=O)OC)CC1CCCO1 (centres undefined)	-10.3
Cc1nc(C2CCN(S(C)(=O)=O)CC2)nc(N2CCCC2)c1C	-3.13
CS(=O)(=O)NC1CC2(CCN(CC3CC3)CC2)Oc2ccccc21 (centres undefined)	1.75
